Source: BigSolDB 2.1

Brc1sc(Br)c(Br)c1Br
solubility (mole fraction)
Conditions | in THF | in chloroform | in ethanol | in ethyl acetate | in ethyl formate | in methanol | in n-butanol | in n-propanol | in toluene
278.05 K | 0.0405 | 0.02 | – | 0.00809 | 0.00389 | – | 0.00267 | – | 0.027
281.25 K | 0.0436 | 0.0229 | 0.00149 | 0.00924 | 0.00451 | 0.000395 | 0.00295 | 0.00219 | 0.0314
286.15 K | 0.0469 | 0.0269 | 0.00165 | 0.0109 | 0.00546 | 0.000465 | 0.00369 | 0.00256 | 0.0358
290.15 K | 0.0511 | 0.0302 | 0.0018 | 0.0124 | 0.00632 | 0.000517 | 0.00433 | 0.00287 | 0.04
293.15 K | 0.0538 | 0.0334 | 0.002 | 0.0137 | 0.00705 | 0.000567 | 0.0048 | 0.00319 | 0.044
297.15 K | 0.0572 | 0.039 | 0.00221 | 0.0154 | 0.00809 | 0.000646 | 0.0054 | 0.00364 | 0.0486
302.15 K | 0.0625 | 0.0455 | 0.00267 | 0.0183 | 0.00969 | 0.00076 | 0.00636 | 0.00433 | 0.0554
307.15 K | 0.0685 | 0.0536 | 0.0031 | 0.0216 | 0.0118 | 0.000896 | 0.0077 | 0.00514 | 0.0626
311.65 K | 0.0738 | 0.0629 | 0.00356 | 0.0249 | 0.0138 | 0.00103 | 0.00895 | 0.00584 | 0.0713
315.65 K | 0.0788 | 0.0687 | 0.00404 | 0.0279 | 0.0154 | 0.0012 | 0.0102 | 0.0067 | 0.0756
320.15 K | 0.0843 | 0.0781 | 0.00475 | 0.0326 | 0.0174 | 0.00144 | 0.0118 | 0.00812 | 0.0834
325.15 K | – | – | 0.00566 | – | – | 0.00169 | – | 0.00965 | –
